{"source": "patent US20240099951A1", "about": "“HAIR GROWTH STIMULANT” (ADJUVANT HOLDINGS CO., LTD., priority 2020, published 2024)", "tested_on": "skin samples derived from C57BL/6N mouse dorsal body hair skin grafted onto Balb/c nu/nu mice", "experiment": "Evaluation of hair growth activity: drug applied on skin samples transplanted in mice", "assay_type": "in vivo", "protocol": "C57BL/6N mice (male) and Balb/c nu/nu mice (female) were purchased from Japan SLC, Inc. (Japan) and bred, and were thereafter made available for the following testing. Note that the testing and breeding of animals complied with pertinent laws, regulations, ordinances, and guidelines, and was performed with the approval of the Experimental Ethics Review Board of the Institute of Physical and Chemical Research. The following reagents were respectively prepared. • Comparative Example 1: 60% aqueous ethanol solution • Comparative Example 2: 5% minoxidil solution • Comparative Example 3: 3% minoxidil solution • Comparative Example 4: 1% minoxidil solution • Working Example 1: 3% phytosphingosine solution • Working Example 2: 1% phytosphingosine solution To collect dorsal body hair skin in the form of anagen stage VI skin 12 to 14 days following depilation, C57BL/6N mice of age 7 to 8 weeks were depilated at locations where dorsal body hair skin was intended to be collected, and were bred for 12 to 14 days. The depilated C57BL/6N mice were thereafter euthanized by cervical dislocation, following which a suitable amount of dorsal body hair skin was collected from the locations at which dorsal body hair skin was intended to be collected. The collected skin was immersed in DMEM culture medium (hereinafter “DMEM 10”) which contained 10 mM HEPES, 10% fetal bovine serum, and 1% penicillin/streptomycin solution. The collected dorsal body hair skin was grasped with bent-nose curved tweezers and was treated by immersion for 10 seconds in a sterilizing solution. Sterilization treatment was performed by carrying out treatment with 7% povidone iodine solution two times, treatment with PBS (−) three times, and treatment with DMEM 10 two times, in this order, with fresh solutions respectively being used each time. Following sterilization treatment, these were immersed in clean DMEM 10. Following sterilization treatment, the dorsal body hair skin was cut into pieces and formed into blocks. The transparent connective tissue which adhered to the cutaneous muscle layer of the skin was excised therefrom using curved scissors, and hair groups were cut into rectangular strips in parallel fashion with respect to the direction of the wave of the hair. At this time, these were cut into blocks such that there were 6 rows of hair follicles along the long axis, adjustment having been carried out so that there were 5 rows of hair follicles along the short axis. The skin samples derived from dorsal body hair skin that were prepared in accordance with the foregoing were grafted onto Balb/c nu/nu mice of age 4 to 6 weeks. More specifically, mice were anesthetized in the usual way using isoflurane gas. The dorsal area of the mice was then disinfected using 7% povidone iodine solution, following which the mice were made to assume a naturally recumbent posture. In addition, a Mani ophthalmic knife (Mani, Inc.; Japan) was used to pierce the skin at the dorsal area of the mice, the grafts which were formed extending from the epidermal layer of the skin to the subdermal layer. The skin samples derived from dorsal body hair skin were inserted into the grafts formed thereat in such fashion as to cause the hair groups to be directed toward the body surface side of the grafts. Skin sample transplanted depth was adjusted so as to cause the top portion of the hair group to be in a state such that it was exposed at the top portion of the graft. To protect the grafts, Nurseban (registered trademark) (Sunplanet Co., Ltd.; Japan) and surgical tape (3M Japan Limited; Japan) were then used as protective tape to cover the grafts at which the skin samples derived from dorsal body hair skin had been transplanted. The protective tape was removed 5 to 7 days following transplantation, and survival of the transplanted skin samples derived from dorsal body hair skin was determined by visual inspection or digital microscopy (Keyence Corporation; Japan), after which follow-up observation was carried out. […]", "key": {"[1]": {"conditions": "1% phytosphingosine solution (Working Example 2), second hair cycle"}, "[2]": {"conditions": "1% phytosphingosine solution (Working Example 2), third hair cycle"}, "[3]": {"conditions": "1% phytosphingosine solution, second hair cycle vs first hair cycle"}, "[4]": {"conditions": "1% phytosphingosine solution, third hair cycle vs first hair cycle"}, "[5]": {"conditions": "3% phytosphingosine solution (Working Example 1), second hair cycle"}, "[6]": {"conditions": "3% phytosphingosine solution (Working Example 1), third hair cycle"}, "[7]": {"conditions": "3% phytosphingosine solution, second hair cycle vs first hair cycle"}, "[8]": {"conditions": "3% phytosphingosine solution, third hair cycle vs first hair cycle"}, "[9]": {"conditions": "solution containing 1% phytosphingosine"}, "[10]": {"conditions": "solution containing 3% phytosphingosine"}}, "data": [{"compound": "CCCCCCCCCCCCCC[C@@H](O)[C@@H](O)[C@@H](N)CO", "note": "[phytosphingosine]", "values": [{"measurement": "Hair shaft elongation rate", "setting": "[1]", "value": "0.48 ± 0.03", "unit": "mm/day"}, {"measurement": "Maximum hair shaft length", "setting": "[1]", "value": "5.1 ± 0.2", "unit": "mm"}, {"measurement": "Hair shaft elongation rate", "setting": "[2]", "value": "0.45 ± 0.02", "unit": "mm/day"}, {"measurement": "Maximum hair shaft length", "setting": "[2]", "value": "4.7 ± 0.1", "unit": "mm"}, {"measurement": "Hair shaft elongation rate, percent change relative to reference data", "setting": "[3]", "value": 129.73, "unit": "%"}, {"measurement": "Maximum hair shaft length, percent change relative to reference data", "setting": "[3]", "value": 113.33, "unit": "%"}, {"measurement": "Hair shaft elongation rate, percent change relative to reference data", "setting": "[4]", "value": 121.62, "unit": "%"}, {"measurement": "Maximum hair shaft length, percent change relative to reference data", "setting": "[4]", "value": 104.44, "unit": "%"}, {"measurement": "Hair shaft elongation rate", "setting": "[5]", "value": "0.46 ± 0.03", "unit": "mm/day"}, {"measurement": "Maximum hair shaft length", "setting": "[5]", "value": "5.4 ± 0.1", "unit": "mm"}, {"measurement": "Hair shaft elongation rate", "setting": "[6]", "value": "0.43 ± 0.05", "unit": "mm/day"}, {"measurement": "Maximum hair shaft length", "setting": "[6]", "value": "5.1 ± 0.3", "unit": "mm"}, {"measurement": "Hair shaft elongation rate, percent change relative to reference data", "setting": "[7]", "value": 109.52, "unit": "%"}, {"measurement": "Maximum hair shaft length, percent change relative to reference data", "setting": "[7]", "value": 122.73, "unit": "%"}, {"measurement": "Hair shaft elongation rate, percent change relative to reference data", "setting": "[8]", "value": 102.38, "unit": "%"}, {"measurement": "Maximum hair shaft length, percent change relative to reference data", "setting": "[8]", "value": 115.91, "unit": "%"}, {"measurement": "hair growth activity", "setting": "[9]", "value": "exhibit hair growth activity"}, {"measurement": "hair shaft elongation rate as compared with reference data", "setting": "[9]", "value": "significant improvement"}, {"measurement": "maximum hair shaft length as compared with reference data", "setting": "solution containing 1% phytosphingosine, third hair cycle", "value": "no significant difference"}, {"measurement": "hair growth activity", "setting": "[10]", "value": "exhibit hair growth activity"}, {"measurement": "hair shaft elongation rate as compared with reference data", "setting": "[10]", "value": "no significant difference"}, {"measurement": "maximum hair shaft length as compared with reference data", "setting": "[10]", "value": "significant improvement"}]}]}
